Measured values: patent US20250277012A1 (Protagonist Therapeutics, Inc., priority 2021, published 2025)
Starred links: 1 amine or outer side, 2 acyl side, 3 side chain; linkers in the order of their positions; H or OH if unused. Positions of bridges follow the written chain, without caps; N, C: chain ends. Non-standard residues stand in square brackets, D forms with d. Residues, ends and D or L forms follow the SMILES beside them. Groups on a side chain read outwards from the residue. *: point of attachment. C18 diacid = O=C(O)CCCCCCCCCCCCCCCCC(=O)*; dDip = N[C@@H](C(=O)O)C(c1ccccc1)c1ccccc1; Lys(Me3) = C[N+](C)(C)CCCC[C@H](N)C(=O)O; Dip = N[C@H](C(=O)O)C(c1ccccc1)c1ccccc1; γGlu = O=C(O)[C@H](CCC(=O)[*:2])N[*:1]; Palmitoyl = CCCCCCCCCCCCCCCC(=O)*; NMeF = CN[C@@H](Cc1ccccc1)C(=O)O; β3hF = N[C@H](CC(=O)O)Cc1ccccc1; dPen = CC(C)(S)[C@@H](N)C(=O)O; NMeK = CN[C@@H](CCCCN)C(=O)O; Isovaleryl = CC(C)CC(=O)*; NMeC = CN[C@@H](CS)C(=O)O; hCys = N[C@@H](CCS)C(=O)O; Dap = NC[C@H](N)C(=O)O; AEEA = NCCOCCOCC(=O)O; Ahx = NCCCCCC(=O)O

Each compound was assayed against T1, ferroportin (Homo sapiens, UniProt Q9NP59) (assay: FPN activity assay: ferroportin-GFP internalization/degradation in HEK293 cells). Settings: Table 6D; ferroportin-GFP internalization/degradation, at least 18 hours incubation; read-out: FPN IC50.
T1 sequence (Q9NP59 1-571): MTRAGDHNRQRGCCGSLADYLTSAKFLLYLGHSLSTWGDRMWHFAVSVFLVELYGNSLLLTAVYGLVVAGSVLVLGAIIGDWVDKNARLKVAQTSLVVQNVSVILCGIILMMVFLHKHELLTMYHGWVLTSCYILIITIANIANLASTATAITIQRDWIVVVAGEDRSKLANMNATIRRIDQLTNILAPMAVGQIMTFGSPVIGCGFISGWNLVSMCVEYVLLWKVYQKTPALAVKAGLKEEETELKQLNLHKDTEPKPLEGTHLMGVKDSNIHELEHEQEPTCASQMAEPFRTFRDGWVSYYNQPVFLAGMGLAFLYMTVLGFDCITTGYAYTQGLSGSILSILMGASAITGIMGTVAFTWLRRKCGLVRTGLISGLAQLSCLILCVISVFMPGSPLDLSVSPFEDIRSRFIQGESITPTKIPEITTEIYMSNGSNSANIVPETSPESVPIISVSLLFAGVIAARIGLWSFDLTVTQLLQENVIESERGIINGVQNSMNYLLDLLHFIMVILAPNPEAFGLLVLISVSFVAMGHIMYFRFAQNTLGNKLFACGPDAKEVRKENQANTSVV
Assay type: cell-based
Parameters: expressed in transfected cells
Protocol: Following internalization, the ferroporin protein is degraded.
A retro inverse peptide is a peptide with a reversed sequence in all D amino acids. An example is that Hy-Glu-Thr-His-NH2 becomes Hy-DHis-DThr-DGlu-NH2. The EC50 of these reference compounds for ferroportin internalization/degradation was determined according to the FPN activity assay described above. These peptides served as control standards.

SMILES	DC50 [nM]
CCCCCCCCCCCCCCCC(=O)NCC[N+](C)(C)CC(=O)NCCCC[C@H](NC(=O)[C@@H]1CSSC[C@H](NC(=O)[C@H](CCC(=O)OC)NC(=O)CC(C)C)C(=O)N[C@@H](Cc2c[nH]cn2)C(=O)N[C@@H](C(c2ccccc2)c2ccccc2)C(=O)N1)C(=O)NCCCCC [compound 123]	> 500

Same assay, conditions: Table 6E; ferroportin-GFP internalization/degradation, at least 18 hours incubation; read-out: FPN IC50

SMILES	DC50 [nM]
CC(C)CC(=O)N[C@@H](CCC(=O)O)C(=O)N[C@H](C(=O)N[C@@H](Cc1c[nH]cn1)C(=O)N[C@H](C(=O)N1CCC[C@H]1C(=O)N[C@H]1CSSC[C@@H](C(=O)N[C@@H](CCCC[N+](C)(C)C)C(=O)N[C@H](C(N)=O)C(c2ccccc2)c2ccccc2)NC1=O)C(c1ccccc1)c1ccccc1)[C@@H](C)O [compound 141] (Isovaleryl-ETH[Dip]PCC[Lys(Me3)][Dip]-NH2; disulfide 6-7)	10 to 100
CC(C)CC(=O)N[C@@H](CCC(=O)O)C(=O)N[C@H](C(=O)N[C@@H](Cc1c[nH]cn1)C(=O)N[C@H](C(=O)N1CCC[C@H]1C(=O)N[C@H]1CSSC[C@@H](C(=O)N[C@@H](CCCC[N+](C)(C)C)C(=O)N[C@@H](C(N)=O)C(c2ccccc2)c2ccccc2)NC1=O)C(c1ccccc1)c1ccccc1)[C@@H](C)O [compound 140] (Isovaleryl-ETH[Dip]PCC[Lys(Me3)][dDip]-NH2; disulfide 6-7)	10 to 100

Same assay, conditions: ferroportin-GFP HEK293 cells, at least 18 hours; read-out: FPN IC50

SMILES	DC50 [nM]
CCCCCCCCCCCCCCCC(=O)NCCCCCC(=O)NCCCC[C@H](NC(=O)C[C@H](Cc1ccccc1)NC(=O)[C@@H]1CSSC(C)(C)[C@@H](NC(=O)CC(C)C)C(=O)N[C@@H]([C@@H](C)O)C(=O)N[C@@H](Cc2c[nH]cn2)C(=O)N[C@@H](C(c2ccccc2)c2ccccc2)C(=O)N2CCC[C@H]2C(=O)N[C@@H](C)C(=O)N[C@@H]([C@@H](C)CC)C(=O)N1)C(=O)N[C@H](CCCCN)C(N)=O [compound 103] (Isovaleryl-[dPen]TH[Dip]PAIC[β3hF]K([Ahx-Palmitoyl])[dK]-NH2; disulfide 1-8)	100 to 500
CCCCCCCCCCCCCCCC(=O)NCCCCCC(=O)NCCCC[C@H](NC(=O)C[C@H](Cc1ccccc1)NC(=O)[C@@H]1CCSSCC[C@H](NC(=O)CC(C)C)C(=O)N[C@@H]([C@@H](C)O)C(=O)N[C@@H](Cc2cnc[nH]2)C(=O)N[C@@H](C(c2ccccc2)c2ccccc2)C(=O)N2CCC[C@H]2C(=O)N[C@@H](C)C(=O)N[C@@H]([C@@H](C)CC)C(=O)N1)C(=O)N[C@H](CCCCN)C(N)=O [compound 111] (Isovaleryl-[hCys]TH[Dip]PAI[hCys][β3hF]K([Ahx-Palmitoyl])[dK]-NH2; disulfide 1-8)	10 to 100
CC[C@H](C)[C@H](NC(=O)[C@@H]1CSSC[C@H](NC(=O)[C@@H](NC(=O)[C@H](Cc2c[nH]cn2)NC(=O)[C@@H](NC(=O)[C@H](CCC(=O)O)NC(=O)CC(C)C)[C@@H](C)O)C(c2ccccc2)c2ccccc2)C(=O)N1)C(=O)N[C@H](CCCCN)C(=O)N[C@H](CC(=O)N[C@@H](CCCCNC(=O)COCCOCCNC(=O)COCCOCCNC(=O)CCCCCNC(=O)CCCCCCCCCCCCCCCCC(=O)O)C(=O)N[C@H](CCCCN)C(N)=O)Cc1ccccc1 [Compd 25] (Isovaleryl-ETH[Dip]CCI[dK][β3hF]K([AEEA-AEEA-Ahx-C18 diacid])[dK]-NH2; disulfide 5-6)	100 to 500
CCCCCCCCCCCCCCCC(=O)NCCCCCC(=O)NCCCC[C@H](NC(=O)C[C@H](Cc1ccccc1)NC(=O)[C@@H](CCCCN)NC(=O)[C@@H](NC(=O)[C@@H]1CSSC[C@H](NC(=O)[C@H](Cc2c[nH]cn2)NC(=O)[C@@H](NC(=O)[C@H](CCC(=O)O)NC(=O)CC(C)C)[C@@H](C)O)C(=O)N2CCC[C@H]2C(=O)N1)[C@@H](C)CC)C(=O)N[C@H](CCCCN)C(N)=O [Compd 3] (Isovaleryl-ETHCPCI[dK][β3hF]K([Ahx-Palmitoyl])[dK]-NH2; disulfide 4-6)	10 to 100
CC(C)CC(=O)N[C@@H](CCC(=O)O)C(=O)N[C@H](C(=O)N[C@@H](Cc1c[nH]cn1)C(=O)N[C@H](C(=O)N1CCC[C@H]1C(=O)N[C@H]1CSSC[C@@H](C(=O)N[C@H](CCCCN)C(=O)N[C@H](CC(=O)N[C@@H](CCCCNC(=O)COCCOCCNC(=O)COCCOCCNC(=O)CCCCCNC(=O)CCCCCCCCCCCCCCCCC(=O)O)C(=O)N[C@H](CCCCN)C(N)=O)Cc2ccccc2)NC1=O)C(c1ccccc1)c1ccccc1)[C@@H](C)O [Compd 26] (Isovaleryl-ETH[Dip]PCC[dK][β3hF]K([AEEA-AEEA-Ahx-C18 diacid])[dK]-NH2; disulfide 6-7)	10 to 100
CC[C@H](C)[C@H](NC(=O)[C@@H]1CSSC[C@H](NC(=O)[C@@H](NC(=O)[C@H](Cc2c[nH]cn2)NC(=O)[C@@H](NC(=O)[C@H](CCC(=O)O)NC(=O)CC(C)C)[C@@H](C)O)C(c2ccccc2)c2ccccc2)C(=O)N1)C(=O)N[C@H](CCCCN)C(=O)N[C@H](CC(=O)N[C@@H](CCCCNC(=O)COCCOCCNC(=O)COCCOCCNC(=O)CC[C@H](NC(=O)CCCCCCCCCCCCCCCCC(=O)O)C(=O)O)C(=O)N[C@H](CCCCN)C(N)=O)Cc1ccccc1 [Compd 34] (Isovaleryl-ETH[Dip]CCI[dK][β3hF]K([AEEA-AEEA-γGlu-C18 diacid])[dK]-NH2; disulfide 5-6)	100 to 500
CCCCCCCCCCCCCCCC(=O)NCCCCCC(=O)NCCCC[C@H](NC(=O)[C@@H](NC(=O)[C@@H]1CSSCC[C@H](NC(=O)CC(C)C)C(=O)N[C@@H](CCC(=O)O)C(=O)N[C@@H]([C@@H](C)O)C(=O)N[C@@H](Cc2c[nH]cn2)C(=O)N[C@@H](C(c2ccccc2)c2ccccc2)C(=O)N2CCC[C@H]2C(=O)N1)[C@@H](C)CC)C(=O)N[C@H](CC(N)=O)Cc1ccccc1 [Compd 13] (Isovaleryl-[hCys]ETH[Dip]PCIK([Ahx-Palmitoyl])[β3hF]-NH2; disulfide 1-7)	100 to 500
CCCCCCCCCCCCCCCC(=O)NCCCCCC(=O)NCCCC[C@H](NC(=O)C[C@H](Cc1ccccc1)NC(=O)[C@@H]1CSSC[C@H](NC(=O)[C@@H]2CCCN2C(=O)[C@@H](NC(=O)[C@H](Cc2c[nH]cn2)NC(=O)[C@@H](NC(=O)[C@H](CCC(=O)O)NC(=O)CC(C)C)[C@@H](C)O)C(c2ccccc2)c2ccccc2)C(=O)N[C@@H]([C@@H](C)CC)C(=O)N1)C(=O)N[C@H](CCCCN)C(N)=O [Compd 7] (Isovaleryl-ETH[Dip]PCIC[β3hF]K([Ahx-Palmitoyl])[dK]-NH2; disulfide 6-8)	10 to 100
CCCCCCCCCCCCCCCC(=O)NCCCCCC(=O)NCCCC[C@H](NC(=O)C[C@H](Cc1ccccc1)NC(=O)[C@H]1CSSC[C@H](NC(=O)CC(C)C)C(=O)N[C@@H]([C@@H](C)O)C(=O)N[C@@H](Cc2c[nH]cn2)C(=O)N[C@@H](C(c2ccccc2)c2ccccc2)C(=O)N2CCC[C@H]2C(=O)N[C@@H](C)C(=O)N[C@@H]([C@@H](C)CC)C(=O)N1)C(=O)N[C@H](CCCCN)C(N)=O [compound 106] (Isovaleryl-CTH[Dip]PAI[dC][β3hF]K([Ahx-Palmitoyl])[dK]-NH2; disulfide 1-8)	100 to 500

Same assay, conditions: ferroportin-GFP internalization/degradation, HEK293 cells; Table 6E; read-out: FPN IC50

SMILES	DC50 [nM]
CC(C)CC(=O)N[C@@H](CCC(=O)O)C(=O)N[C@H](C(=O)N[C@@H](Cc1c[nH]cn1)C(=O)N[C@H](C(=O)N1CCC[C@H]1C(=O)N[C@H]1CSSC[C@@H](C(=O)N(C)[C@@H](CCCCNC(=O)COCCOCCNC(=O)COCCOCCNC(=O)[C@H](CN)NC(=O)CCCCCCCCCCCCCCCCC(=O)O)C(=O)N(C)[C@@H](Cc2ccccc2)C(=O)N(C)[C@@H](CCCCN)C(N)=O)N(C)C1=O)C(c1ccccc1)c1ccccc1)[C@@H](C)O [compound 277] (Isovaleryl-ETH[Dip]PC[NMeC][NMeK]([AEEA-AEEA-Dap-C18 diacid])[NMeF][NMeK]-NH2; disulfide 6-7)	10 to 100
